In patent EP0498941A2, “Peptide skeletal muscle relaxants” (BOC Health Care, Inc., priority 1991, dated 1992):

Test system: neuromuscular junction
Experiment: Rabbit paw twitch analysis (neuromuscular blocking activity)
Assay type: in vivo, Male New Zealand white rabbits
From the text: In a large series of similar relaxants, the rabbit dose is typically 125% of that in mice. The mechanism of action was also confirmed in this test by observing train-of-four and tetanus fade, post-tetanic potentiation of single twitches and administration of the anticholinesterase drug neostigmine which reverses the relaxation. Reversibility, rapid onset and short duration are important factors to the anesthesiologist.
The following is a brief description of the methodologies used in rabbits to describe neuromuscular blocking activity of the subject compounds. A more detailed description of these methods is presented in "Microcomputer Use in Measuring Onset, Duration, and Recovery from Non-Depolarizing Skeletal Muscle Relaxants in Rabbits", P.D. Thut et al., Drug development Research 5:182, 1985.
Male New Zealand white rabbits weighing between 2.5 and 3.4 kg were anesthetized with pentobarbital (30 mg/kg) and placed on their backs upon a 40°C water filled temperature regulation pad. Following tracheostomy, the lungs were mechanically ventilated at 28 breaths per minute with room air, using an open system delivering 200 ml/stroke. This ventilation maintained pCO₂ at 38 […] and pO₂ at 85 mmHg. Direct arterial blood pressure was measured from the right common carotid artery. The test compounds were administered through a cannula placed in the marginal ear vein. Each foreleg was taped to a cushioned plate held in a femur clamp attached to the spinal board rack. The left centeral digit of each paw was connected to a force displacement transducer for measurement of muscle tension. Nerve stimulation was provided by pairs of pin electrodes placed on both sides of the ulnar nerve at the elbow of both forearms. The right ulnar nerve was stimulated at 1 Hz, 1 pps for .5 msec duration. The left ulnar nerve was similarly stimulated, every 15 seconds, with addition of interspersed trains-of-four and tetanizing stimuli. The parameters reported in Table II are: potency (ED90), which is the dose required to depress twitch tension to 10% of its control value; onset (T85%), which is the time from injection until 85% of the maximal drug effect is achieved; duration, which is the time from injection until the train-of-four has recovered to 75%; blood pressure (BP), which is the percentage change of pre-drug blood pressure; and heart rate (HR), which is the percentage change from pre-drug heart rate.

Row | Compound | ED90 (Oryctolagus cuniculus, iv, potency: dose required to depress twitch tension to 10% of its control value, pentobarbital-anesthetized rabbits, marginal ear vein) [mg/kg] | T85% (onset: time from injection until 85% of the maximal drug effect is achieved, equi-efficacious dose) [s] | Duration (time from injection until the train-of-four has recovered to 75%, equi-efficacious dose) [min] | BP (rabbit, in vivo) [% change] | Duration (rabbit, in vivo) [min] | ED9O (rabbit, in vivo) [mg/kg] | HR (rabbit, in vivo) | T85% (rabbit, in vivo) [s]
1 | COc1ccc(CC2c3cc(OC)c(OC)cc3CC[N+]2(C)CCC(=O)OCCCCCOC(=O)CC[N+]2(C)CCc3cc(OC)c(OC)cc3C2Cc2ccc(OC)c(OC)c2)cc1OC (stereo not shown) [atracurium] | 0.05 | 126.90 | 14.30 | – | – | – | – | –
2 | CC(=O)O[C@H]1C[C@@H]2CC[C@@H]3[C@H](CC[C@@]4(C)[C@H]3C[C@H]([N+]3(C)CCCCC3)[C@@H]4OC(C)=O)[C@@]2(C)C[C@@H]1[N+]1(C)CCCCC1 [pancuronium] | – | – | – | 2.70 | 35.50 | 0.02 | 0.00 % change | 147.50
3 | CC(=O)O[C@H]1C[C@@H]2CC[C@@H]3[C@H](CC[C@@]4(C)[C@H]3C[C@H]([N+]3(C)CCCCC3)[C@@H]4OC(C)=O)[C@@]2(C)C[C@@H]1N1CCCCC1 [vecuronium] | – | – | – | 1.10 | 16.80 | 0.02 | - 9.90 % change | 97.30
